Data as given in patent publication US20250204541A1, “GAS PHASE TREATMENT OF PRODUCE” (priority 2022, published 2025).

Experiments:
Assay type in all cases: in vivo
Botrytis cinerea (Bc) [1] = assay: Antifungal activity of AITC vapor against Botrytis cinerea in strawberries; conditions: for strawberries infected: Example 14, ambient temperature, day 6
Experimental: Example 13. The antifungal activity of AITC vapor against Bc in strawberries was tested. All samples were wounded by making a 3 mm deep puncture in the skin. Samples were infected by dispensing 1000 Bc spores suspended in 10 μL of water in the wound. Samples were then incubated at ambient temperature, imaged, and assessed for mold over the following 3 days. The test group consisted of strawberries that were: uninfected and untreated; infected and untreated; and exposed for 30 minutes to the vapor of 125 μL AITC dispensed on Whatman filter paper. […] The infection rates in the initially uninfected sample indicate that the step involving the initial infection of the wound by dispensing the Bc spores may not be necessary to promote infection in the test groups.
Example 14. The antifungal activity of a range of AITC vapor concentrations against Bc in strawberries was tested. Samples were treated by exposure for 30 minutes to the vapor of a range of volumes of AITC disposed on a filter paper disc, then incubated at ambient temperature, imaged, and assessed for mold over the following 6 days. Test groups consisted of strawberries that were untreated and strawberries exposed to the vapor of 62.5 μL, 125 μL, 250 μL, and 500 μL of AITC. […] On day 6, 83% of the untreated control strawberries were infected, 100% of the 62.5 μL AITC dose strawberries were infected, 13% of the 125 μL AITC dose strawberries were infected, and 0% of the 250 and 500 μL AITC dose strawberries were infected. For strawberries incubated at room temperature, all of the AITC doses above 62.5 μL were effective at preventing mold, with doses above 125 μL substantially eliminating mold.
Example 15. The antifungal activity of AITC vapor under different exposure conditions against Bc in strawberries was tested. Test groups consisted of strawberries that were untreated and treated by exposure for 30 minutes to the vapor of 125 μL of AITC disposed on a filter paper disc. Test groups were then incubated in either open or closed containers at 4° C., imaged, and assessed for mold over the following 14 days. […] All samples were free of mold through 7 days. On day 12, 16.7% of the open air controls were infected, 29.2% of closed container controls were infected, and 0% of the AITC treated were infected. On day 14, 33.3% of the open air controls were infected, 41.7% of closed container controls were infected, 0% of the open air AITC treated were infected, and 4.2% of the closed container AITC treated were infected. For strawberries incubated at 4° C., AITC treatment was effective in reducing the incidence of mold over a two week period. While ⅓ of the open air untreated samples were infected, none of the open air AITC-treated were infected. Over 40% of the closed container controls were infected. A single strawberry was infected in the closed container AITC-treated test group.
Example 16. The antifungal activity of AITC vapor against Bc in strawberries treated with a coating agent (95 wt % glyceryl monostearate and 5 wt % sodium stearate) and exposed to vapor in clamshells was tested. Test groups consisted of strawberries that were: untreated; dipped in 40 g/L solution of the coating agent; exposed for 30 minutes to the vapor of 125 μL of AITC disposed on a filter paper disc; and dipped in 40 g/L solution of the coating agent and exposed for 30 minutes to the vapor of 125 μL of AITC disposed on a filter paper disc. Samples were treated, incubated at ambient temperature, imaged, and assessed for mold over the following 4 days. […] On day 3, 52.8% of the controls were infected, 42.1% of the coating agent were infected, 26.3% of the AITC were infected, and 9.3% of the coating agent+AITC were infected. On day 4, 88.9% of the controls were infected, 76.3% of the coating agent were infected, 71% of the AITC were infected, and 34.9% of the coating agent+AITC were infected. […] Bowl dipping in the coating solution also presented challenges for drying around the calyx.
Example 17. […]

Botrytis cinerea (Bc) [2] = assay: as above; conditions: Example 17; suspended strawberries; coating agent 50 g/L dip; AITC 125 μL 30 minutes; by day 5
[3] = system: Penicillium italicum (Pi); assay: Antifungal activity of vapor against Penicillium italicum in wounded, infected mandarins; conditions: 72 hours vapor of 3 mL in a Petri dish
Experimental: Example 2. The antifungal activity of allyl isothiocyanate (AITC) and DADS vapor was tested against Pd and Penicillium italicum (Pi) in mandarins. All samples were wounded by puncturing with a screw. Mandarins were infected by dispensing either 1000 Pd spores or 1000 Pi spores suspended in 10 μL into the wound. The test groups consisted of mandarins that were: uninfected and untreated; uninfected and treated by dipping in a solution of 1 g/L of imazalil; infected with Pd and untreated; infected with Pd and exposed to AITC; infected with Pd and exposed to DADS; infected with Pi and untreated; infected with Pi and exposed to AITC; and infected with Pi and exposed to DADS. Exposure to AITC or DADS consisted of exposing the mandarins for 72 hours to the vapor of 3 mL of the respective compound dispensed in a Petri dish. […] DADS vapor reduced the incidence of Pd mold by 85% and Pi mold by 30% compared to the respective untreated/infected test groups. […] Both AITC and DADS were effective at preventing fungal growth. The inhibition from AITC was approximately 100%, with some changes in visible appearance.

[4] = system: Penicillium digitatum (Pd); assay: Antifungal activity of vapor against Penicillium digitatum in wounded, infected mandarins; conditions: for effect on Pd infection: airtight container with fan, 18 hours, then 6 days; for infected: 125 μL, 30 minutes

For C=CCN=C=S [AITC, allyl isothiocyanate], the “samples showing visible mold” value (Botrytis cinerea (Bc) [1]; Example 13, strawberries, 30 minutes vapor of 125 μL, after 24 hours) was “no mold was visible”, the “fraction of samples showing visible mold” value (Botrytis cinerea (Bc) [1]; Example 13, strawberries, 30 minutes vapor of 125 μL, after 48 hours) was “⅛” and the “fraction of samples showing visible mold” value (Botrytis cinerea (Bc) [1]; Example 13, strawberries, 30 minutes vapor of 125 μL, after 72 hours) was “¼”. It also gave a strawberries infected (Botrytis cinerea (Bc) [1]; 62.5 μL dose, 30 minutes) of 100%, a strawberries infected (Botrytis cinerea (Bc) [1]; 125 μL dose, 30 minutes) of 13% and a strawberries infected (Botrytis cinerea (Bc) [1]; 250 μL dose, 30 minutes) of 0%. For the same compound, the strawberries infected (Botrytis cinerea (Bc) [1]; 500 μL dose, 30 minutes) was 0%, the infected (Botrytis cinerea (Bc) [1]; Example 15, strawberries, 125 μL, 30 minutes, 4° C., closed container, day 14) was 4.2% and the infected (Botrytis cinerea (Bc) [1]; Example 15, strawberries, 125 μL, 30 minutes, 4° C., open air, day 14) was 0%. The infected (Botrytis cinerea (Bc) [1]; Example 15, strawberries, 125 μL, 30 minutes, 4° C., open or closed containers, day 12) was 0%, the “mold” value (Botrytis cinerea (Bc) [1]; Example 15, strawberries, 125 μL, 30 minutes, incubated at 4° C., through 7 days) was “free of mold” and the infected (Botrytis cinerea (Bc) [1]; Example 16, strawberries in clamshells, coating agent 40 g/L dip, AITC 125 μL 30 minutes, ambient, day 3) was 26.3%. The infected (Botrytis cinerea (Bc) [1]; Example 16, strawberries in clamshells, coating agent 40 g/L dip, AITC 125 μL 30 minutes, ambient, day 4) was 71%, the “reduction in incidence of mold versus the untreated test group” value (Botrytis cinerea (Bc) [2]) was “over 80%” and the “inhibition of fungal growth” value ([3]; mandarins infected with Pi) was “approximately 100%”. The “effect on Pi infection” value ([3]; mandarins) was “substantially prevented”, the “effect on Pd infection at 50% of the minimum inhibitory concentration” value ([4]; 62.5 μL AITC vapor for 30 minutes, assessed after 6 days) was “tends to reduce the severity of infection, but not eliminate the incidence of infection” and the “effect on Pd infection” value ([4]; 62.5 μL on filter paper disc) was “reduced the severity of infection relative to the untreated group”. The “effect on Pd mold” value ([4]; 125 μL on filter paper, airtight container, 2 hour exposure, assessed after 6 days) was “substantially eliminated the mold”, the “effect on Pd infection” value ([4]; 500 μL on filter paper disc) was “substantially prevented the growth mold” and the infected ([4]; treated 24 hours after infection, assessed after 6 days) was 8.3%. For the same compound, the infected ([4]; treated 48 hours after infection, assessed after 6 days) was 25%, the infected ([4]; treated 72 hours after infection, assessed after 6 days) was 16.7% and the infected ([4]; treated 96 hours after infection, assessed after 6 days) was 81.6%. It also gave an infected ([4]; treated immediately after infection (0 hours), assessed after 6 days) of 58.3%.

In the case of C=CCSSCC=C [DADS, diallyl disulfide], the “reduction of the incidence of Pi mold compared to the untreated/infected test group” value ([3]; mandarins) is reported as 30%.
